# Assay results reported in patent US20240207256A1, “CERTAIN CHEMICAL ENTITIES, COMPOSITIONS, AND METHODS” (NeuPharma, Inc, priority 2021, published 2024).
# How the values were obtained:
# [1] = biological target: Na+/K+-ATPase; experiment: Na+/K+-ATPase inhibition; assay type: biochemical; conditions: read-out: IC50 against Na+/K+-ATPase
# [2] = Compound A loading onto CalliSpheres microspheres (residual concentration by HPLC); assay type: physicochemical; conditions: for Concentration of Residual: 1 g microspheres 100-300 μm, 2 mg in 4 ml NaOAc/HOAc buffer 100 mM pH5.0; for Amount of Compound Loaded: onto 1 g microspheres
# Procedure: Microspheres (1 g, 100-300 μm, CalliSpheres® CallisynBiomedical, Inc.) were immersed into Compound A solution (2 mg in 4 ml of NaOAc/HOAc buffer (100 mM, pH5.0)) using a 10 mL disposable syringe. Residual compound concentration remaining in the depleted loading solution over time was determined by HPLC method.
# (§1) HPLC was performed using the following instrument and/or conditions: […]
# [3] = Elution of Compound A from loaded microspheres using the T-Apparatus; assay type: physicochemical; conditions: 50 mL PBS pH 7.4, 25° C.
# Procedure: The microspheres loaded with Compound A were eluted into 50 mL of phosphate buffer solution (PBS, pH 7.4) at 25° C. using a T-Apparatus (Lewis A L, Gonzalez M V, Lloyd A W, et al. DC bead: in vitro characterization of a drug-delivery device for transarterial chemoembolization. J Vasc Interv Radiol, 2006, 17: 335-42). The concentration of Compound A was determined using HPLC method.
# as §1
structure (smiles),measurement,setting,value
"C[C@]12CC[C@H](OC(=O)N3CCNCC3)C[C@H]1CC[C@@H]1[C@@H]2CC[C@]2(C)[C@@H](c3ccc(=O)oc3)CC[C@]12O [Compound A, (3S,5R,8R,9S,10S,13R,14S,17R)-14-hydroxy-10,13-dimethyl-17-(2-oxo-2H-pyran-5-yl)hexadecahydro-1H-cyclopenta[α]phenanthren-3-yl piperazine-1-carboxylate]",IC50,[1],~20 nM
same,Concentration of Residual,[2]; time 0 h,458000 ng/mL
same,Amount of Compound Loaded,[2]; time 0 h,0 mg
same,Concentration of Residual,[2]; time 0.25 h,91000 ng/mL
same,Amount of Compound Loaded,[2]; time 0.25 h,1.47 mg
same,Concentration of Residual,[2]; time 0.5 h,81000 ng/mL
same,Amount of Compound Loaded,[2]; time 0.5 h,1.51 mg
same,Concentration of Residual,[2]; time 0.75 h,83000 ng/mL
same,Amount of Compound Loaded,[2]; time 0.75 h,1.50 mg
same,Concentration of Residual,[2]; time 1 h,60000 ng/mL
same,Amount of Compound Loaded,[2]; time 1 h,1.59 mg
same,Amount of Compound Eluted,[3]; time 0.083 h,0.63 mg
same,Concentration of Compound Eluted,[3]; time 0.083 h,13000 ng/mL
same,Amount of Compound Eluted,[3]; time 0.5 h,0.67 mg
same,Concentration of Compound Eluted,[3]; time 0.5 h,14000 ng/mL
same,Amount of Compound Eluted,[3]; time 0.75 h,0.70 mg
same,Concentration of Compound Eluted,[3]; time 0.75 h,14000 ng/mL
same,Amount of Compound Eluted,[3]; time 1 h,0.70 mg
same,Concentration of Compound Eluted,[3]; time 1 h,14000 ng/mL
same,Amount of Compound Eluted,[3]; time 2 h,0.76 mg
same,Concentration of Compound Eluted,[3]; time 2 h,15000 ng/mL
same,Amount of Compound Eluted,[3]; time 4 h,0.94 mg
same,Concentration of Compound Eluted,[3]; time 4 h,19000 ng/mL
same,Amount of Compound Eluted,[3]; time 6 h,1.10 mg
same,Concentration of Compound Eluted,[3]; time 6 h,22000 ng/mL
same,Amount of Compound Eluted,[3]; time 24 h,1.21 mg
same,Concentration of Compound Eluted,[3]; time 24 h,24000 ng/mL
